Here are results for six compounds from publication PMC4648258 (ACS infectious diseases, 2015).

The structures appear in SMILES notation. ≈ marks a conversion by molar mass, not a printed value.

Assay [1] concerns M. tuberculosis rINH (ATCC 35822). The assay is described as follows: microbe, parasite or virus in culture. In kind it is cell-based, Mycobacterium tuberculosis.
The subject of assay [2] is M. tuberculosis rSM (ATCC 35820). The assay is described as follows: microbe, parasite or virus in culture. Format: cell-based, Mycobacterium tuberculosis.
Assay [3] concerns M. tuberculosis rKM (ATCC 35827). In words: microbe, parasite or virus in culture. In kind it is cell-based, Mycobacterium tuberculosis.
The test system of assay [4] is M. tuberculosis rRMP (ATCC 35838). In words: microbe, parasite or virus in culture. In kind it is cell-based, Mycobacterium tuberculosis.
Assay [5] deals with M. tuberculosis thyA overexpression mutant. In kind it is cell-based.
The test system of assay [6] is M. tuberculosis thyX overexpression mutant. Format: cell-based.
Assay [7] relates to M. tuberculosis rCS (cycloserine; ATCC35826). The assay is described as follows: microbe, parasite or virus in culture. In kind it is cell-based. The settings on record: Mycobacterium tuberculosis.
Where [8] appears, read: Mycobacterium tuberculosis, ATCC35822.
[9] abbreviates: Mycobacterium tuberculosis, ATCC35820.
Setting [10] is: Mycobacterium tuberculosis, ATCC35827.
[11] abbreviates: Mycobacterium tuberculosis, ATCC35838.

As for `[H]/N=C(/N)N[C@H]1[C@H](O)[C@@H](O)[C@H](O[C@@H]2O[C@@H](C)[C@](O)(C=O)[C@H]2O[C@@H]2O[C@@H](CO)[C@H](O)[C@@H](O)[C@@H]2NC)[C@@H](N/C(N)=N\[H])[C@@H]1O` [SM, streptomycin], the figures for the MIC in assay [1] (setting [8]), in assay [2] (setting [9]) and in assay [3] (setting [10]) were 0.46 mg/L (≈ 0.791 µM), greater than 2 mg/L and 1.2 mg/L (≈ 2.06 µM), respectively.
Take `O=[N+]([O-])c1cn2c(n1)OC[C@@H](OCc1ccc(OC(F)(F)F)cc1)C2` [PA824]: the MIC came to 0.03 mg/L (≈ 0.0835 µM) in assay [1] (setting [8]), 0.11 mg/L (≈ 0.306 µM) in assay [2] (setting [9]), 0.03 mg/L (≈ 0.0835 µM) in assay [4] (setting [11]) and 0.19 mg/L (≈ 0.529 µM) in assay [3] (setting [10]).
For `CCCc1c2c([nH]c(=O)c1C)C(=O)c1[nH]c(=O)c(C)c(CCC)c1C2=O` [Compound 3, diazaquinomycin A], the MIC was 0.13 mg/L (≈ 0.367 µM) in assay [1] (MABA, rINH strain); 0.17 mg/L (≈ 0.48 µM) in assay [2] (MABA, rSM strain); 0.27 mg/L (≈ 0.762 µM) in assay [4] (MABA, rRMP strain); 0.06 mg/L (≈ 0.169 µM) in assay [3] (MABA, rKM strain). The “MIC differential versus H37Rv wild-type” value in assay [5] and in assay [6] was “did not observe a significant differential in the MIC” each time.
As to `NNC(=O)c1ccncc1` [INH, isoniazid], the MIC in assay [1] (setting [8]) was greater than 2 mg/L; in assay [2] (setting [9]), 0.02 mg/L (≈ 0.146 µM); in assay [7], 0.01 mg/L (≈ 0.0729 µM); in assay [4] (setting [11]) it was 0.02 mg/L (≈ 0.146 µM); in assay [3] (setting [10]) it was 0.03 mg/L (≈ 0.219 µM).
In the case of `NC[C@H]1O[C@H](O[C@H]2[C@H](O)[C@@H](O[C@H]3O[C@H](CO)[C@@H](O)[C@H](N)[C@H]3O)[C@H](N)C[C@@H]2N)[C@H](O)[C@@H](O)[C@@H]1O` [KM, kanamycin], the MIC in assay [1] (MABA, rINH strain) is 0.95 mg/L (≈ 1.96 µM); in assay [2] (MABA, rSM strain) it was 0.95 mg/L (≈ 1.96 µM); in assay [3] (MABA, rKM strain), greater than 2.00 mg/L.
In the case of `CO[C@H]1/C=C/O[C@@]2(C)Oc3c(C)c(O)c4c(O)c(c(/C=N/N5CCN(C)CC5)c(O)c4c3C2=O)NC(=O)/C(C)=C\C=C\[C@H](C)[C@H](O)[C@@H](C)[C@@H](O)[C@@H](C)[C@H](OC(C)=O)[C@@H]1C` [RMP, rifampicin], the MIC is 0.01 mg/L (≈ 0.0122 µM) in assay [1] (setting [8]); 0.03 mg/L (≈ 0.0365 µM) in assay [2] (setting [9]); less than 0.01 mg/L in assay [7]; greater than 2 mg/L in assay [4] (setting [11]); less than 0.01 mg/L in assay [3] (setting [10]).
